From patent publication US6989380B2, “Treatment of pain” (The WKK Trust, priority 1996, dated 2006)

The compounds below were run on intractable trigeminal neuralgia (assay: Case history: intractable trigeminal neuralgia). Conditions: person; treatments tried before the combination; relief attributed to placebo effects.
Assay type: in vivo, human
Description: A person suffered from intractable trigeminal neuralgia of many years standing. […] They then were treated with lofepramine, 70 mg bd, together with L-phenylalanine, 500 mg bd.

| SMILES | pain relief with earlier treatments |
| --- | --- |
| NC(=O)N1c2ccccc2C=Cc2ccccc21 [carbamazepine] | None had provided more than transient relief for a few days |
| CN1C(=O)CN=C(c2ccccc2)c2cc(Cl)ccc21 [diazepam] | None had provided more than transient relief for a few days |
| CNCCC(Oc1ccc(C(F)(F)F)cc1)c1ccccc1 (centres unmarked) [fluoxetine] | None had provided more than transient relief for a few days |
| CN1CC[C@]23c4c5ccc(O)c4O[C@H]2[C@@H](O)C=C[C@H]3[C@H]1C5 [morpine] | None had provided more than transient relief for a few days |
| O=C1NC(=O)C(c2ccccc2)(c2ccccc2)N1 [phenytoin] | None had provided more than transient relief for a few days |
